One block for each molecule: values may come before it. Calls of active or inactive are those of the source. The calls are words filed in the database; no cut-off is given here.
Legend:
[1] = Inhibition of interleukin-23 binding to cynomolgus monkey interleukin-23 receptor incubated for 2 hrs by competitive binding ELISA; set-up: species or system Macaca fascicularis
Interleukin-23 receptor [2] = target: T1, Interleukin-23 receptor (Homo sapiens, UniProt Q5VWK5); assay: Inhibition of interleukin-23 receptor in human DB cells assessed as reduction in IL-23-stimulated STAT3 phosphorylation incubated for 30 mins by HTRF assay; assay type: cell-based
T1 sequence (Q5VWK5 whole entry): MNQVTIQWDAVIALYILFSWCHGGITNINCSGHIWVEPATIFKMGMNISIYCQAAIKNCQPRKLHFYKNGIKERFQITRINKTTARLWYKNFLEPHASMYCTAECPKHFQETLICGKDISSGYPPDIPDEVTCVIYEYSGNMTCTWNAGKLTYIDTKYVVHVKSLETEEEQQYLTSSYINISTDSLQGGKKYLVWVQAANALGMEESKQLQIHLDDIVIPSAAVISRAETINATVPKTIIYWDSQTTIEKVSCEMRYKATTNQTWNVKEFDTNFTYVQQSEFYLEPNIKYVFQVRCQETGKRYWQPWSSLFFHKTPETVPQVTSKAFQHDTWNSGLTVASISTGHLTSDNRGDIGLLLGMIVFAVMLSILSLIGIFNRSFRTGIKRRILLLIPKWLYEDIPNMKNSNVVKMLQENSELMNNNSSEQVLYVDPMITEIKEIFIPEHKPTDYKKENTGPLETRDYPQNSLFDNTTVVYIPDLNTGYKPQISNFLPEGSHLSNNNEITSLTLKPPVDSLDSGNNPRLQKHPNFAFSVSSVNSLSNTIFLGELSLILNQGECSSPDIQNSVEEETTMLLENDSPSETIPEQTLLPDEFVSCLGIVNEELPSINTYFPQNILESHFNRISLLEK

Interleukin-23 receptor [3] = target: T2, Interleukin-23 receptor (Mus musculus, UniProt Q8K4B4); assay: Inhibition of interleukin-23 binding to mouse interleukin-23 receptor incubated for 2 hrs by competitive binding ELISA
T2 sequence (Q8K4B4 whole entry): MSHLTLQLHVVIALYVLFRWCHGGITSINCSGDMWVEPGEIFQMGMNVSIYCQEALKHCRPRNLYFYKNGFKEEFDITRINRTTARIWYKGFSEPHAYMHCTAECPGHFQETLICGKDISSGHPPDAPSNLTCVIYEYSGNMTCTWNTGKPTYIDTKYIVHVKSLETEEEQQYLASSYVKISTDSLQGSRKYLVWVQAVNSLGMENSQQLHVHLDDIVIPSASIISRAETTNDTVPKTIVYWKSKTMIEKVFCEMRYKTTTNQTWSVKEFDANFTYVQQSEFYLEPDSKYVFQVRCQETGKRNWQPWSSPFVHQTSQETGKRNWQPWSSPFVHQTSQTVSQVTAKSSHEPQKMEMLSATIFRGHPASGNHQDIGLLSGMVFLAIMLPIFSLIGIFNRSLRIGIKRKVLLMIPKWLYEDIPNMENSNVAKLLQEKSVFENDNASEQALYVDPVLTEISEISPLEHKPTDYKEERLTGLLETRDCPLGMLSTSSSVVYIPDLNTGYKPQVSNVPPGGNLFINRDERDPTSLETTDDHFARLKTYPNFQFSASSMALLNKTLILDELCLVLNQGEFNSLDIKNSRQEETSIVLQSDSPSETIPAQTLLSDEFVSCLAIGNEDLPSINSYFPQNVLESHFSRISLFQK

Interleukin-23 receptor [4] = target: T1, Interleukin-23 receptor; assay: Inhibition of interleukin-23 binding to human interleukin-23 receptor incubated for 2 hrs by competitive binding ELISA
[5] = Inhibition of interleukin-23 binding to rat interleukin-23 receptor incubated for 2 hrs by competitive binding ELISA
[6] = Half life in human intestinal fluid at 20 uM by LC-MS/MS analysis; assay type: ADME
Interleukin-23 receptor [7] = target: T1, Interleukin-23 receptor; assay: Binding affinity to human FC-tagged human interleukin-23 receptor by SPR assay
[8] = AUC in rat small intestinal mucosa at 20 mg/kg, po; assay type: ADME, organism-based, Mucosa of small intestine; conditions: in vivo
Rattus norvegicus [9] = assay: Anti-colitis activity in Sprague-Dawley rat model of TNBS-induced colitis assessed as reduction in inflammation at 160 mg/kg/day, po starting 24 hrs before TNBS injection; assay type: functional, organism-based
[10] = Half life in simulated intestinal fluid at 20 uM by LC-MS/MS analysis; assay type: ADME
Rattus norvegicus [11] = assay: Anti-colitis activity in Sprague-Dawley rat model of TNBS-induced colitis assessed as reduction in colon wall thickness at 160 mg/kg/day, po starting 24 hrs before TNBS injection; assay type: functional, organism-based
[12] = AUC in rat plasma at 20 mg/kg, po; assay type: ADME, organism-based
Interleukin-23 receptor [13] = target: T1, Interleukin-23 receptor; assay: Binding affinity to human recombinant interleukin-23 receptor by SPR assay
[14] = Binding affinity to human FC-tagged human recombinant interleukin-12 receptor beta1/human FC-tagged human interleukin-23 receptor by SPR assay
Rattus norvegicus [15] = assay: Anti-colitis activity in Sprague-Dawley rat model of TNBS-induced colitis assessed as induction of healing at necrosis sites in colon at 20 mg/kg, po dosed 3 times per day for 8 days starting 24 hrs before TNBS injection by H and E staining based histological assay; assay type: functional, organism-based
[16] = target: T3, Interleukin-23 receptor (Homo sapiens) (UniProt Q5VWK5); assay: Binding affinity to human FC-tagged human interleukin-23 receptor assessed as association constant by SPR assay
T3 sequence (whole entry): T1 sequence (Q5VWK5 whole entry)

[17] = Binding affinity to human FC-tagged human recombinant interleukin-12 receptor beta1/human FC-tagged human interleukin-23 receptor assessed as dissociation rate constant by SPR assay
Interleukin-23 receptor [18] = target: T1, Interleukin-23 receptor; assay: Binding affinity to human FC-tagged human interleukin-23 receptor assessed as dissociation rate constant by SPR assay
[19] = Ratio of IC50 for inhibition of interleukin-23 binding to rat interleukin-23 receptor incubated for 2 hrs by competitive binding ELISA to plasma concentration in Sprague-Dawley rat model of TNBS-induced colitis
Rattus norvegicus [20] = assay: Anti-colitis activity in Sprague-Dawley rat model of TNBS-induced colitis assessed as reduction in localized lesions in mucosa and sub-mucosal regions at 20 mg/kg, po dosed 3 times per day for 8 days starting 24 hrs before TNBS injection by H and E staining based histological assay; assay type: functional, organism-based
[21] = AUC in rat colon mucosa at 20 mg/kg, po; assay type: ADME, organism-based, Colonic mucosa; conditions: in vivo
Interleukin-23 receptor [22] = target: T1, Interleukin-23 receptor; assay: Inhibition of interleukin-23 receptor in human natural killer cells assessed as reduction in IL23/IL18-induced IFNgamma production incubated for 20 to 24 hrs by ELISA; assay type: cell-based
[23] = target: T4, Interleukin-12 receptor subunit beta-1 (Homo sapiens, UniProt P42701); assay: Binding affinity to human FC-tagged human recombinant interleukin-12 receptor beta1 up to […] by SPR assay
[24] = target: T4, Interleukin-12 receptor subunit beta-1; assay: Binding affinity to human recombinant interleukin-12 receptor beta1 by SPR assay
[25] = Ratio of IC50 for inhibition of interleukin-23 receptor in rat splenocytes assessed as reduction in IL23-stimulated IL-17A production incubated for 3 hrs by ELISA to plasma concentration in Sprague-Dawley rat model of TNBS-induced colitis
PBMC = assay: Inhibition of IL12-stimulated IFNgamma production in PHA-activated human PBMC by ELISA; assay type: functional, cell-based
[26] = Half life in DTT at 50 uM up up to 120 mins by reverse phase HPLC and UV detection based assay; assay type: physicochemical
Rattus norvegicus [27] = assay: Anti-colitis activity in Sprague-Dawley rat model of TNBS-induced colitis assessed as reduction in colon weight/colon length ratio at 20 mg/kg, po dosed 3 times per day for 8 days starting 24 hrs before TNBS injection; assay type: functional, organism-based
Rattus norvegicus [28] = assay: Anti-colitis activity in Sprague-Dawley rat model of TNBS-induced colitis assessed as reduction in mucosal necrosis at 160 mg/kg/day, po starting 24 hrs before TNBS injection; assay type: functional, organism-based
[29] = Half life in simulated gastric fluid at 20 uM by LC-MS/MS analysis; assay type: ADME
[30] = Drug recovery in rat feces at 20 mg/kg, po; assay type: ADME, organism-based; conditions: read-out: Drug recovery
Rattus norvegicus [31] = assay: Anti-colitis activity in Sprague-Dawley rat model of TNBS-induced colitis assessed as improvement in histological scores at 160 mg/kg/day, po starting 24 hrs before TNBS injection by H and E staining based histological assay; assay type: functional, organism-based
Rattus norvegicus [32] = assay: Anti-colitis activity in Sprague-Dawley rat model of TNBS-induced colitis assessed as reduction in inflammation at 20 mg/kg, po dosed 3 times per day for 8 days starting 24 hrs before TNBS injection; assay type: functional, organism-based
[33] = Inhibition of interleukin-23 receptor in rat splenocytes assessed as reduction in IL23-stimulated IL-17A production incubated for 3 hrs by ELISA; assay type: cell-based
Homo sapiens = species on record: Homo sapiens; assay: Binding affinity to human FC-tagged human recombinant interleukin-12 receptor beta1/human FC-tagged human interleukin-23 receptor assessed as association constant by SPR assay
[34] = Inhibition of interleukin-6 binding to human interleukin-6 receptor incubated for 2 hrs by competitive binding ELISA
Rattus norvegicus [35] = assay: Anti-colitis activity in Sprague-Dawley rat model of TNBS-induced colitis assessed as improvement in gross pathology scores at 20 mg/kg, po dosed 3 times per day for 8 days starting 24 hrs before TNBS injection; assay type: functional, organism-based
Rattus norvegicus [36] = assay: Anti-colitis activity in Sprague-Dawley rat model of DSS-induced colitis assessed as reduction in disease activity index at 100 mg/kg, po qd for 9 days; assay type: functional, organism-based

IC50 [1]: 1000 to 10000 nM
IC50 (Interleukin-23 receptor [2]): 1000 to 10000 nM
IC50 (Interleukin-23 receptor [3]): > 25000 nM
IC50 (Interleukin-23 receptor [4]): 25 to 10000 nM
IC50 [5]: 1000 to 10000 nM
SMILES: CC(=O)N[C@@H](CS)C(=O)N[C@@H](CCC(N)=O)C(=O)N[C@H](C(=O)N[C@@H](Cc1c[nH]c2ccccc12)C(=O)N[C@@H](CCC(N)=O)C(=O)N[C@@H](CS)C(=O)N[C@@H](Cc1ccc(O)cc1)C(=O)N[C@@H](Cc1c[nH]c2ccccc12)C(=O)N[C@@H](CCCNC(N)=O)C(=O)N[C@@H](CN)C(=O)N[C@@H](Cc1ccccc1)C(=O)NCC(=O)NCCOCC(=O)N[C@H](CCCCN)C(N)=O)[C@@H](C)O

half-life at 20 µM [6]: > 24 h
Kd (Interleukin-23 receptor [7]): 2.42 nM
AUC [8]: 355 µg·h/g
half-life at 20 µM [10]: 6 to 24 h
AUC [12]: 300 ng·h/mL
Kd (Interleukin-23 receptor [13]): 2.4 nM
IC50 [1]: 7 nM
Kd [14]: 2.56 nM
IC50 (Interleukin-23 receptor [2]): < 10 nM
Ka [16]: 1.37 ×10⁷ /M/s
IC50 (Interleukin-23 receptor [4]): 10 to 25 nM
Kd [17]: 0.041 s⁻¹
Kd (Interleukin-23 receptor [18]): 0.033 s⁻¹
AUC [21]: 77 µg·h/g
Activity [23]: inactive
IC50 [5]: 10 to 25 nM
Kd [24]: Not Active
half-life at 50 µM [26]: > 2 h
half-life at 20 µM [29]: 2 to 24 h
dose excreted [30]: 40%
IC50 [33]: 130 nM
Ka (Homo sapiens): 1.59 ×10⁷ /M/s
IC50 [34]: > 100000 nM
SMILES: CC(=O)N[C@H]1CCSC[C@@H](C(=O)N[C@@H](Cc2ccc(OCCN)cc2)C(=O)N[C@@H](Cc2c[nH]c3ccccc23)C(=O)N[C@@](C)(CCCCN)C(=O)N[C@@H](CCC(=O)O)C(=O)N[C@@H](CC(N)=O)C(=O)NCC(N)=O)NC(=O)[C@H](CCC(N)=O)NC(=O)[C@H](Cc2c[nH]c3ccccc23)NC(=O)[C@H]([C@@H](C)O)NC(=O)[C@H](CCC(N)=O)NC1=O
Activity (Rattus norvegicus [9]): Active
Activity (Rattus norvegicus [11]): Active
Activity (Rattus norvegicus [15]): Active
Ratio [19]: <2
Activity (Rattus norvegicus [20]): Active
IC50 (Interleukin-23 receptor [22]): 25 to 27 nM
Ratio [25]: <2
IC50 (PBMC): > 100000 nM
Activity (Rattus norvegicus [27]): Active
Activity (Rattus norvegicus [28]): Active
Activity (Rattus norvegicus [31]): Active
Activity (Rattus norvegicus [32]): Active
Activity (Rattus norvegicus [35]): Active

SMILES: O=C(O)c1cc(/N=N/c2ccc(S(=O)(=O)Nc3ccccn3)cc2)ccc1O
Activity (Rattus norvegicus [36]): Active
